Assay results: US20050191710A1, “Method for labeling a membrane-localized protein” (priority 2004, published 2005)

Tests used:
[1] = biological target: T1, BirA (Escherichia coli, UniProt P06709); conditions: read-out: equilibrium dissociation constant; cited from earlier work
[2] = test system: CFTR; experiment: cAMP-stimulated iodide efflux from stably transfected cells; format: cell-based, baby hamster kidney (BHK) cells; conditions: for peak iodide efflux: compared to wild-type CFTR
Description: Since CFTR functions as a chloride channel, responsiveness of the tagged channels to PKA was examined by comparing cAMP-stimulated iodide efflux from cells stably transfected with 1) wild-type CFTR, 2) CFTR with a polyhistidine tag, 3) wild-type CFTR bearing both polyhistidine and biotinylation tags or 4) a ΔF508 CFTR construct that was identical to 3) except for deletion of phenylalanine 508. […] Therefore, similar to epitope-tagging of the fourth extracellular loop (Benharouga, et al. (2003) J. Biol. Chem. 278:22079-22089; Schultz, et al. (1997) Am. J. Physiol. Cell Physiol. 273:C2080-C2089), iodide efflux responses to PKA were preserved after insertion of a biotinylation target sequence.
Iodide effluxes were measured using standard methods (Cormet-Boyaka, et al. (2002) Proc. Natl. Acad. Sci. USA 99:12477-12482; Cormet-Boyaka, et al. (2002) Proc. Natl. Acad. Sci. USA 99:12477-12482). Briefly, cells were incubated with iodide loading buffer (136 mM NaI, 3 mM KNO3, 2 mM Ca(NO3)2, 11 mM glucose and 20 mM HEPES, pH 7.4) for 1 hour at room temperature. Extracellular NaI was removed by rinsing with iodide-free efflux buffer (same as loading buffer except NaNO3 replaced NaI). Samples were collected by removing the efflux buffer at 1 minute intervals and replacing it with fresh solution. The first three samples established the baseline efflux rate, then cpt-cAMP was added and samples were collected at 1 minute intervals in the continuous presence of cpt-cAMP for 15 minutes. Iodide was measured using an iodide sensitive electrode (Orion Research, Inc., Boston, Mass., USA) and converted to nmoles released/minutes.

[3] = biological target: T1, BirA; conditions: estimated from initial rate of biotinyl-5′-AMP synthesis; read-out: KM for ATP; cited from earlier work

T1 sequence (P06709 whole entry): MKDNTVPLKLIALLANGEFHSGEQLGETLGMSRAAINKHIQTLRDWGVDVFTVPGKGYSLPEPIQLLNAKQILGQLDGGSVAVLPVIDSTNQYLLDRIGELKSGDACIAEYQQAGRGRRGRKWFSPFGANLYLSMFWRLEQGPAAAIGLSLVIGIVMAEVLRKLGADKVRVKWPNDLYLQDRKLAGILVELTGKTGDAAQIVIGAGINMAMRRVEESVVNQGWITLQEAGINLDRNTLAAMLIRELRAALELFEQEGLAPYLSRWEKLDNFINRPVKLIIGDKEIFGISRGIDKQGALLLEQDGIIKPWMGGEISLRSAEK

O=C(O)CCCC[C@@H]1SC[C@@H]2NC(=O)N[C@@H]21 [biotin]
Kd [1]: 10 to 100 nM

ΔF508CFTR-biotintag: ΔF508 CFTR construct with biotinylation tag, deletion of phenylalanine 508 (disease mutation)
cAMP-stimulated iodide efflux [2]: not detected

Nc1ncnc2c1ncn2[C@@H]1O[C@H](COP(=O)(O)OP(=O)(O)OP(=O)(O)O)[C@@H](O)[C@H]1O [ATP]
Km [3]: 3 mM

wild-type CFTR bearing both polyhistidine and biotinylation tags: CFTR-biotintag with ten histidines at the C-terminus for purification on nickel-NTA beads
delay of iodide efflux compared to wild-type CFTR ([2]; cAMP-stimulated): ~1 min
peak iodide efflux ([2]; cAMP-stimulated): not diminished

CFTR with a polyhistidine tag: CFTR with glycine and ten histidines added to the C-terminus [reference compound]
peak iodide efflux ([2]; cAMP-stimulated): not diminished
